Measured values reported in US20220202783A1, “Use Of ADAM9 Inhibitor As Immunomodulator” (China Medical University, priority 2019, published 2022).

Assays:
Pan18-GFP-Luc = assay: cytotoxicity on pancreatic cancer cells, Pan18-GFP-Luc; format: cell-based; conditions: Pancreatic cancer cell
Procedure: (§1) In addition, the IC50 values (unit is μM) of the compound SW1 and the compound SW2 on pancreatic cancer cells were measured in the experiment.

ADAM17 = ADAM17 (Homo sapiens, UniProt P78536); assay: inhibition of ADAM17 activity; format: biochemical; conditions: different concentrations
Chain of ADAM17 (P78536 215-824, species assumed): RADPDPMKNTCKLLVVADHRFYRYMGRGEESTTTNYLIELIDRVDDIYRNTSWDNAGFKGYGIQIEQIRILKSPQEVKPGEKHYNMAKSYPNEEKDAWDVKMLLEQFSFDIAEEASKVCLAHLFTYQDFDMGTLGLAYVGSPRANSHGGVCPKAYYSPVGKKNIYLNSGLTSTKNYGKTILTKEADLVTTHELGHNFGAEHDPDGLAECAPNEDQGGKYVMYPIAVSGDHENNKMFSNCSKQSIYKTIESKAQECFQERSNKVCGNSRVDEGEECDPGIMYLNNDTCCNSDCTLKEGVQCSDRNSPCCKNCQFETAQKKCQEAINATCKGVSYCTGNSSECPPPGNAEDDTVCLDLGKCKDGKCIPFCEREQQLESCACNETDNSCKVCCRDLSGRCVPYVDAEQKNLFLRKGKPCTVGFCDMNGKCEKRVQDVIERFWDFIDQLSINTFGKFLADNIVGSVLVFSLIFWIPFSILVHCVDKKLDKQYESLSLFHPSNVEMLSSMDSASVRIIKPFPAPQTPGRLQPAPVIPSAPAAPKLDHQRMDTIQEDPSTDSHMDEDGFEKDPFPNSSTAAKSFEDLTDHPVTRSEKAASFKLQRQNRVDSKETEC

lung cancer cells (A549) = assay: cytotoxicity assay in A549 cells; format: cell-based; design: key to effect of inhibiting tumor cell growth: “+” represents that the compound has the effect of inhibiting tumor cell growth; conditions: for IC50: Homo sapiens
How it was run: (§2)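 Compounds of Formula (I) were tested in a cytotoxicity assay, and IC50 values were determined from the resulting cell-killing data.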

Panc-1 = assay: cytotoxicity on pancreatic cancer cells, Panc-1; format: cell-based; conditions: Homo sapiens
Procedure: as §1

lung cancer cells (TC1) = assay: cytotoxicity assay in TC1 cells; format: cell-based; design: key to effect of inhibiting tumor cell growth: “+” represents that the compound has the effect of inhibiting tumor cell growth; conditions: for IC50: TC-1
How it was run: as §2

Bm7 lung cancer cells [1] = assay: migration inhibition assay; format: cell-based; conditions: 25 μM, control Bm7 lung cancer cells (shGFP)
Procedure: To further evaluate the specificity of the compound SW1 and the compound SW2, control Bm7 lung cancer cells (treated with shGFP) and ADAM9 knockout (KO) Bm7 lung cancer cells (treated with shADAM9) were treated with 25 μM of the compound SW1 or the compound SW2, respectively, and then performed a migration inhibition assay.

PE10 WBC = assay: cytotoxicity assay in PE10 WBC; format: cell-based; design: key to effect of inhibiting tumor cell growth: “+” represents that the compound has the effect of inhibiting tumor cell growth
[2] = system: breast cancer brain metastatic cell line-MDA-231 brm; assay: anoikis in anchorage-free culture, MDA-231brm; format: cell-based; conditions: read-out: IC50 value for anoikis (anchorage-free induced apoptosis)
Procedure: (§3) To ensure the compound SW1 and the compound SW2 in blocking anoikis-resistance of cancer cells, the IC50 value (unit is μM) of the compound SW1 and the compound SW2 for anoikis (anchorage-free induced apoptosis) in lung cancer brain metastatic cell line-Bm7brmx2, breast cancer brain metastatic cell line-MDA-231 brm and leukocytes in anchorage-free culture conditions were determined.

HNOF = assay: cytotoxicity assay in HNOF cells; format: cell-based; design: key to effect of inhibiting tumor cell growth: “+” represents that the compound has the effect of inhibiting tumor cell growth; conditions: HNOF
Bm7 lung cancer cells [3] = assay: cytotoxicity assay, FIG. 1B and Table 2 summary; format: cell-based
Procedure: (§4) Please refer to FIG. 1A, FIG. 1B and Table 2, which show the analysis results of the compound of Formula (I) inhibiting ADAM9 activity. In FIG. 1A, Bm7 lung cancer cells were treated with the derivatives of the compound 6X-0310, and then cultured under anchorage-free culture condition. The expressions of ADAM9 and CDCP1 in Bm7 lung cancer cells were detected by Western blot, in which EF1α is an internal control, and mock represents Bm7 lung cancer cells without treatment. […] In the experiment, the compounds of Formula (I) of Example 1 to Example 32 were further performed cytotoxicity assay to measure the IC50 value of the compounds of Formula (I) of the present disclosure in lung cancer cell lines.

[4] = system: breast cancer cells (231-brm); assay: cytotoxicity assay in 231-brm cells; format: cell-based; design: key to effect of inhibiting tumor cell growth: “+” represents that the compound has the effect of inhibiting tumor cell growth
[5] = system: lung cancer cells (Bm7brmx2-1st); assay: cytotoxicity assay in Bm7brmx2-1st cells; format: cell-based; design: key to effect of inhibiting tumor cell growth: “+” represents that the compound has the effect of inhibiting tumor cell growth
How it was run: as §2

[6] = system: lung cancer cells (H1299); assay: cytotoxicity assay in H1299 cells; format: cell-based; design: key to effect of inhibiting tumor cell growth: “+” represents that the compound has the effect of inhibiting tumor cell growth; conditions: for effect of inhibiting tumor cell growth: H1299; for IC50: Homo sapiens, NCI-H1299
How it was run: as §2

TC1-WT lung cancer cells = assay: colony-forming assay, TC1; format: cell-based; conditions: 10 μM
Procedure: To further test the planting efficiency of tumor cells treated with the compound SW1 and the compound SW2, in the experiment, control Bm7 lung cancer cells (treated with shGFP) and ADAM9 KO Bm7 lung cancer cells (treated with shADAM9) were treated with 20 μM of the compound SW1 or the compound SW2 respectively, and TC1-wild-type (WT) lung cancer cells and TC1-ADAM9 KO lung cancer cells were treated with 10 μM of the compound SW1 or the compound SW2 respectively. Then colony-forming assay was used to confirm the planting efficiency of each test group. Please refer to FIGS. 2D and 2E, wherein mock represents the tumor cell lines without treatment of the compound SW1 or the compound SW2. Representative images of colony-forming assay are shown at the bottom, and data are means±SD of 6 separate wells.

[7] = cytotoxicity assay in 293 cells; format: cell-based; design: key to effect of inhibiting tumor cell growth: “+” represents that the compound has the effect of inhibiting tumor cell growth; conditions: 293
[8] = system: kidney cancer cells (293); assay: cytotoxicity assay in 293 cells; format: cell-based; design: key to effect of inhibiting tumor cell growth: “+” represents that the compound has the effect of inhibiting tumor cell growth; conditions: Homo sapiens, HEK293
Su86-86-GFP-Luc = assay: cytotoxicity on pancreatic cancer cells, Su86-86-GFP-Luc; format: cell-based; conditions: Pancreatic cancer cell
Procedure: as §1

HPAC-GFP-Luc = assay: cytotoxicity on pancreatic cancer cells, HPAC-GFP-Luc; format: cell-based; conditions: Pancreatic cancer cell
Procedure: as §1

recombinant human ADAM9 = target: T1, recombinant human ADAM9 (Homo sapiens, UniProt Q13443); assay: ADAM9 enzymatic activity ELISA with fluorescent peptide substrate; format: biochemical; conditions: different concentrations
T1 construct: purchased R&D system
T1 sequence (Q13443 29-819): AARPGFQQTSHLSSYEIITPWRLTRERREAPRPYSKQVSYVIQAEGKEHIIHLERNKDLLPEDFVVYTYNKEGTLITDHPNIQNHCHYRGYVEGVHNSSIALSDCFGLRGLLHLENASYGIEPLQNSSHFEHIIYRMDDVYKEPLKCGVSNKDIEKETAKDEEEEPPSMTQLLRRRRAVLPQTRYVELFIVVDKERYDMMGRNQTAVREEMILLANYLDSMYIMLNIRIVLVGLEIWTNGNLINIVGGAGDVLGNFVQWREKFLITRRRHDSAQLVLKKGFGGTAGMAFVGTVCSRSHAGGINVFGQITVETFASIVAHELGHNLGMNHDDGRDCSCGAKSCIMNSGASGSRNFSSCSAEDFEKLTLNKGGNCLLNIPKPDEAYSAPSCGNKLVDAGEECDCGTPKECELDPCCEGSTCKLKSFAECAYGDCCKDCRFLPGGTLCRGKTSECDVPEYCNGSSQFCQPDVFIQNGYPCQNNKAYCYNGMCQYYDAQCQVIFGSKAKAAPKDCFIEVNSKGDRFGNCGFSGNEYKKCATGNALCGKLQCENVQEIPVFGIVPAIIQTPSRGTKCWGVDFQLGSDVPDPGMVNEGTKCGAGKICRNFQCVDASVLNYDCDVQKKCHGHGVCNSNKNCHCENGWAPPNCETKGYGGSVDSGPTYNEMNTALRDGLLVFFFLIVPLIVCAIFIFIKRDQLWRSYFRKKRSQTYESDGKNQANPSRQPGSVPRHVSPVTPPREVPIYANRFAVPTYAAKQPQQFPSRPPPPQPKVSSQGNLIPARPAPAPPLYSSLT
Text: To measure the efficacy of the compound of Formula (I) in suppression of ADAM9 enzymatic activity, an ELISA system was established using recombinant human ADAM9 and a fluorescent peptide substrate (R&D system) in the experiment. Broad-spectrum MMP inhibitor-BB-94 was included as a positive control. The compounds of Formula (I) used in this experiment were the compound SW1 and the compound SW2.

[9] = system: CDCP1 in Bm7 lung cancer cells; assay: Western blot of ADAM9 and CDCP1 expression in Bm7 cells; format: cell-based; conditions: anchorage-free culture
Procedure: as §4

PC-080 = assay: cytotoxicity on pancreatic cancer cells, PC-080; format: cell-based; conditions: Pancreatic cancer cell
Procedure: as §1

[10] = system: lung cancer cells (Bm7brmx2-2nd); assay: cytotoxicity assay in Bm7brmx2-2nd cells; format: cell-based; design: key to effect of inhibiting tumor cell growth: “+” represents that the compound has the effect of inhibiting tumor cell growth
How it was run: as §2

[11] = system: lung cancer brain metastatic cell line-Bm7brmx2; assay: anoikis in anchorage-free culture, Bm7brmx2; format: cell-based; conditions: read-out: IC50 value for anoikis (anchorage-free induced apoptosis)
Procedure: as §3

SMILES	IC50 (Pan18-GFP-Luc) [µM]	inhibition of ADAM17 activity (ADAM17)	effect of inhibiting tumor cell growth (lung cancer cells (A549))	IC50 (lung cancer cells (A549)) [µM]	IC50 (Panc-1) [µM]	effect of inhibiting tumor cell growth (lung cancer cells (TC1))	IC50 (lung cancer cells (TC1)) [µM]	migration ability (Bm7 lung cancer cells [1])	IC50 (PE10 WBC) [µM]	effect of inhibiting tumor cell growth (PE10 WBC)	IC50 [2] [µM]	effect of inhibiting tumor cell growth (HNOF)	tumor cell cytotoxicity compared with the core structure compound 6X-0310 (Bm7 lung cancer cells [3])	IC50 [4] [µM]	effect of inhibiting tumor cell growth [4]	IC50 [5] [µM]	effect of inhibiting tumor cell growth [5]	effect of inhibiting tumor cell growth [6]	IC50 [6] [µM]	planting efficiency, colony-forming assay (TC1-WT lung cancer cells)	other results
O=C1c2ccccc2C(=O)N1CCc1csc(Nc2nc(CCN3C(=O)c4ccccc4C3=O)cs2)n1 [SW1]	0.3	no inhibitory effects	+	434	424	+	80.4	significantly reduce the migration ability	14500	+	4.5	+	stronger tumor cell cytotoxicity	4.5	+	40.4	+	+	76.9	greatly reduce the planting efficiency	effect of inhibiting tumor cell growth [7]: +; IC50 [8]: 81.3 µM; IC50 (Su86-86-GFP-Luc): 59.2 µM; IC50 (HPAC-GFP-Luc): 126 µM; inhibition of ADAM9 activity (recombinant human ADAM9): decrease ADAM9 activity to a similar extent in a dose-dependent manner; expression of CDCP1 [9]: reduce the expression of CDCP1; IC50 (PC-080): 446 µM; IC50 [10]: 43.5 µM; effect of inhibiting tumor cell growth [10]: +; IC50 [11]: 20 µM
O=C(Nc1nc(CCN2C(=O)c3ccccc3C2=O)cs1)c1cc2ccccc2s1 [SW2]	112	no inhibitory effects	+	458	34.2	+	64.2	significantly reduce the migration ability	76.5	+	7.5	+	stronger tumor cell cytotoxicity	7.55	+	44.3	+	+	32	greatly reduce the planting efficiency	effect of inhibiting tumor cell growth [7]: +; IC50 [8]: 15 µM; IC50 (Su86-86-GFP-Luc): 66.8 µM; IC50 (HPAC-GFP-Luc): 29.3 µM; inhibition of ADAM9 activity (recombinant human ADAM9): decrease ADAM9 activity to a similar extent in a dose-dependent manner; expression of CDCP1 [9]: reduce the expression of CDCP1; IC50 (PC-080): 89.6 µM; IC50 [10]: 45.1 µM; effect of inhibiting tumor cell growth [10]: +; IC50 [11]: 27 µM
